Reference: patent publication US20240299591A1, “Antimicrobial Peptides and Their Use” (priority 2021, published 2024)
Values after ≈ are worked out from the molar mass of the structure shown. Where a SMILES comes first, the peptide text is derived from it. [ ]: non-standard residue; d: D form. The star is where a group is joined. X1 = CN1/C(=C/C=C(/C=C/C2=[N+](C)c3ccccc3C2(C)C)c2ccc(C(=O)*)cn2)C(C)(C)c2ccccc21; X2 = O=C1OC2(c3ccc(O)cc3Oc3cc(O)ccc32)c2cccc(C(=O)*)c21

Key:
Assay type in all cases: cell-based
[1] = tested on: Aspergillus fumigatus; conditions: 24 h
Method: The assays were performed using Nunc 262162 U96 polystyrene round bottomed clear plates (www.nuncbrand.com).
(§1) When testing the peptides against A. fumigatus, peptides at different concentrations were mixed with A. fumigatus conidia to reach a final volume of 100 μL per well. The final conidial concentration was 5×10^5 cells/mL in 10% Vogel's medium. After 24 h of incubation at 37° C. in 96 well plates, fungal growth with the different peptide concentrations was determined by measurement of the optical density at 610 nm in a TriStar LB 941 Multimode Microplate Reader. The IC50 values were determined using four parameter logistic regression formula provided by Sigma Plot 10.0. Values are represented as means±SEM from two independent experiments (n=3).
(§2) The IC50 of the fluorescently labelled peptides cannot be accurately determined using the optical density method described in the last section. This is because the fluorophore structures absorbed light at 610 nm which was the wavelength used for the optical density measurements. In order to overcome this, the BacTiter-Glo™ Microbial Cell Viability Assay kit purchased from Promega was used. The BacTiter-Glo™ Reagent relies on the properties of a proprietary thermostable luciferase (Ultra-Glo™ Recombinant Luciferase) and a proprietary formulation for extracting ATP from fungal cells which will generates a ‘glow-type’ luminescent signal. This is produced by the luciferase reaction shown in Scheme 1, which has a signal half-life of over 30 min depending on the experimental conditions. The luminescent signal is proportional to the amount of ATP present, which is directly proportional to the number of living cells in culture.
(§3) The IC50 assays for all fluorescently labelled peptides were performed using Greiner CELLSTAR white polystyrene wells flat bottomed 96 well plates. The incubation conditions remained the same for the optical density measurement described in the previous section. Once the incubation procedure was finished, the plate was equilibrated to room temperature. A mixture of BacTiter-Glo™ buffer and substrate was then added to the plate (100 μL per well). The plate was shaken for 5 min and read using the Tristar […] luminometer. Data analysis was performed using Sigma Plot 10.0. All values shown are presented as means±SEM from two independent experiments (n=3).

[2] = tested on: Fusarium oxysporum; conditions: 24 h
Method: Dose dependent inhibition of fungal growth by all non-labelled peptides (indicated by IC50 values) was determined via this methodology. The assays were performed using Nunc 262162 U96 polystyrene round bottomed clear plates (www.nuncbrand.com).
as §1
When testing the peptides against N. crassa and F. oxysporum, experiments were carried as described above apart from the incubation temperature was changed to 25° C. for N. crassa and 35° C. for F. oxysporum.
as §2, §3

[3] = Viability of reconstructed cornea-like epithelium (eye irritation model); conditions: human, reconstructed cornea-like epithelium (RhCE, EpiOcular™)
Method: (§4) FIG. 4a is a graph of the viability reconstructed cornea-like epithelium (RhCE, EpiOcular™) after incubation with MFIGA001. NC=Negative Control; PC=Positive Control. FIG. 4b is a graph of the viability reconstructed cornea-like epithelium (RhCE, EpiOcular™) after incubation with 10 µM of MFIGA001a and MFIGAF001b. NC=Negative Control; PC=Positive Control; A2=MFIGAF001a; and B1=MFIGAF001b.
(§5) MFIGAF001 was also assessed independently by a CRO (Evotec) in an OECD compliant reconstructed cornea-like epithelial cell model (RhCE, EpiOcular™).

[4] = tested on: reconstructed cornea-like epithelium (RhCE, EpiOcular™); assay: as above
Method: as §4, §5

[5] = tested on: C. albicans, F. oxysporum, A. fumigatus, and C. neoformans; assay: Live cell imaging, fluorescent labelling of pathogenic fungi; set-up: dose or concentration left out as unconfirmed; conditions: 15 min incubation at 37° C. in RPMI
Method: The N. crassa mat A WT used for confocal live-cell imaging was grown on 100% Vogel's agar medium at 25° C. for 3-5 days before the spores were harvested. The A. fumigatus CEA10 strain used for confocal live-cell imaging was grown on 100% Vogel's medium at 37° C. for 4-5 days before the spores were harvested. Before the confocal experiments were performed, N. crassa spores were incubated in eight-well slide culture chambers for 3 h at 25° C. in liquid 10% Vogel's medium and A. fumigatus spores were incubated for 16 h at 25° C. in liquid 10% Vogel's medium in order to allow germination to fully take place for imaging.
Live-cell imaging of germinated fungi spores was performed using a Leica TCS SP8 confocal laser scanning microscope equipped with photo multiplier tubes (PMT), hybrid GaAsP (HyD) detectors and a 63× water immersion objective. A Leica turntable white light laser (WLL, 450-750 nm), argon laser (458 nm, 476 nm, 488 nm and 496 nm) and UV laser (405 nm) were used for fluorescence excitation.
The major pathogenic fungi include C. albicans, F. oxysporum, A. fumigatus, and C. neoformans.

Molecule | IC50 Aspergillus fumigatus [1] [µg/mL] | IC50 Fusarium oxysporum [2] [µg/mL] | viability at 10 µM [3] [%] | Toxicity, reconstructed cornea-like epithelium (FIG. 4) [4] | Fluorescent labelling of pathogenic fungi [5]
N=C(N)NCCC[C@@H]1NC(=O)[C@H](CCCCNC(=O)c2cccc3c2C(=O)OC32c3ccc(O)cc3Oc3cc(O)ccc32)NC(=O)[C@H](Cc2c[nH]c3ccccc23)NC(=O)[C@H](Cc2ccccc2)NC(=O)[C@H](Cc2c[nH]c3ccccc23)NC(=O)[C@@H](Cc2ccccc2)NC(=O)[C@H](CCCCN)NC(=O)[C@H](CCCCN)NC1=O [MFIGAF001d, Cyclo(Arg-Lys-Lys-phe-Trp-Phe-Trp-Lys(CF))] (cyclo(FWK(X2)RKK[dF]W)) | 2.9 (≈ 1.85 µM) | 3.0 (≈ 1.92 µM) |  |  | 
C[C@@H](NC(=O)[C@H](CCCCN)NC(=O)[C@H](CCCCN)NC(=O)[C@@H](N)CCCNC(=N)N)C(=O)N[C@@H](Cc1c[nH]c2ccccc12)C(=O)N[C@@H](Cc1ccccc1)C(=O)N[C@@H](Cc1c[nH]c2ccccc12)C(=O)NCC(=O)O [MFIGAF000, NH2-Arg-Lys-Lys-ala-Trp-Phe-Trp-Gly-COOH] (HELM PEPTIDE1{R.K.K.[dA].W.F.W.G}$$$$V2.0) | 5.3 (≈ 4.92 µM) | 4.2 (≈ 3.9 µM) |  |  | 
N=C(N)NCCC[C@@H]1NC(=O)CNC(=O)[C@H](Cc2c[nH]c3ccccc23)NC(=O)[C@H](Cc2ccccc2)NC(=O)[C@H](Cc2c[nH]c3ccccc23)NC(=O)[C@@H]2CCCN2C(=O)[C@H](CCCCN)NC(=O)[C@H](CCCCN)NC1=O [MFIGAF007, Cyclo(Arg-Lys-Lys-pro-Trp-Phe-Trp-Gly)] | 5.2 (≈ 4.79 µM) | 3.4 (≈ 3.13 µM) |  |  | 
N=C(N)NCCC[C@@H]1NC(=O)CNC(=O)[C@H](CCCCNC(=O)c2cccc3c2C(=O)OC32c3ccc(O)cc3Oc3cc(O)ccc32)NC(=O)[C@H](Cc2c[nH]c3ccccc23)NC(=O)[C@H](Cc2ccccc2)NC(=O)[C@H](Cc2c[nH]c3ccccc23)NC(=O)[C@@H](Cc2ccccc2)NC(=O)[C@H](CCCCN)NC(=O)[C@H](CCCCN)NC1=O [MFIGAF001b, Cyclo(Arg-Lys-Lys-phe-Trp-Phe-Trp-Lys(CF)-Gly)] (cyclo(FWK(X2)GRKK[dF]W)) | 2.1 (≈ 1.29 µM) | 2.3 (≈ 1.42 µM) | 99.1 | no obvious toxicity | label all major pathogenic fungi that cause fungal keratitis
H-RKKWFW-NH2 [PAF26, NH2-Arg-Lys-Lys-Trp-Phe-Trp-CONH2, reference compound] | 8.0 | 7.2 |  |  | 
N=C(N)NCCC[C@H](N)C(=O)N[C@@H](CCCCN)C(=O)N[C@@H](CCCCN)C(=O)N1CCC[C@@H]1C(=O)N[C@@H](Cc1c[nH]c2ccccc12)C(=O)N[C@@H](Cc1ccccc1)C(=O)N[C@@H](Cc1c[nH]c2ccccc12)C(=O)NCC(=O)O [MFIGAF004] | 5.2 (≈ 4.71 µM) | 4.1 (≈ 3.71 µM) |  |  | 
N=C(N)NCCC[C@H](N)C(=O)N[C@@H](CCCCN)C(=O)N[C@@H](CCCCN)C(=O)N1CCC[C@H]1C(=O)N[C@@H](Cc1c[nH]c2ccccc12)C(=O)N[C@@H](Cc1ccccc1)C(=O)N[C@@H](Cc1c[nH]c2ccccc12)C(=O)NCC(=O)O [MFIGAF003, NH2-Arg-Lys-Lys-pro-Trp-Phe-Trp-Gly-COOH] | 5.2 (≈ 4.71 µM) | 4.1 (≈ 3.71 µM) |  |  | 
CN1/C(=C/C=C(/C=C/C2=[N+](C)c3ccccc3C2(C)C)c2ccc(C(=O)NCCCC[C@@H]3NC(=O)[C@H](Cc4c[nH]c5ccccc45)NC(=O)[C@H](Cc4ccccc4)NC(=O)[C@H](Cc4c[nH]c5ccccc45)NC(=O)[C@@H](Cc4ccccc4)NC(=O)[C@H](CCCCN)NC(=O)[C@H](CCCCN)NC(=O)[C@H](CCCNC(=N)N)NC3=O)cn2)C(C)(C)c2ccccc21 [MFIGAF001c, Cyclo(Arg-Lys-Lys-phe-Trp-Phe-Trp-Lys(Cy5))] (cyclo(FWK(X1)RKK[dF]W)) | 1.5 | 1.8 |  |  | 
C[C@H]1NC(=O)[C@H](CCCCN)NC(=O)[C@H](CCCCN)NC(=O)[C@H](CCCNC(=N)N)NC(=O)CNC(=O)[C@H](Cc2c[nH]c3ccccc23)NC(=O)[C@H](Cc2ccccc2)NC(=O)[C@H](Cc2c[nH]c3ccccc23)NC1=O [MFIGAF005, Cyclo(Arg-Lys-Lys-ala-Trp-Phe-Trp-Gly)] (HELM PEPTIDE1{F.W.G.R.K.K.[dA].W}$PEPTIDE1,PEPTIDE1,1:R1-8:R2$$$V2.0) | 6.3 (≈ 5.94 µM) | 3.1 (≈ 2.92 µM) |  |  | 
N=C(N)NCCC[C@H](N)C(=O)N[C@@H](CCCCN)C(=O)N[C@@H](CCCCN)C(=O)N[C@H](Cc1ccccc1)C(=O)N[C@@H](Cc1c[nH]c2ccccc12)C(=O)N[C@@H](Cc1ccccc1)C(=O)N[C@@H](Cc1c[nH]c2ccccc12)C(=O)NCC(=O)O [MFIGAF002, NH2-Arg-Lys-Lys-phe-Trp-Phe-Trp-Gly-COOH] (HELM PEPTIDE1{R.K.K.[dF].W.F.W.G}$$$$V2.0) | 2.8 (≈ 2.43 µM) | 3.5 (≈ 3.03 µM) |  |  | 
N=C(N)NCCC[C@@H]1NC(=O)CNC(=O)[C@H](Cc2c[nH]c3ccccc23)NC(=O)[C@H](Cc2ccccc2)NC(=O)[C@H](Cc2c[nH]c3ccccc23)NC(=O)[C@H]2CCCN2C(=O)[C@H](CCCCN)NC(=O)[C@H](CCCCN)NC1=O [MFIGAF008] | 5.5 (≈ 5.06 µM) | 3.8 (≈ 3.5 µM) |  |  | 
